Measurements published in patent US10016406B2, “Indazole inhibitors of the WNT signal pathway and therapeutic uses thereof” (Samumed, LLC, priority 2009, dated 2018).

Tested on: Wnt
Test: Wnt reporter screening assay: SW480 cells stably transduced with SP5 promoter-firefly luciferase lentiviral construct
Type: cell-based
Settings: Homo sapiens, SW480 colon cancer cells, 24 h after compound addition, normalized to DMSO, read-out: Wnt inhibition, IC50
Excerpt: Another screening assay for Wnt activity is described as follows. Reporter cell lines can be generated by stably transducing cells of cancer cell lines (e.g., colon cancer) with a lentiviral construct that include a wnt-responsive promoter driving expression of the firefly luciferase gene.
Lentiviral constructs can be made in which the SP5 promoter, a promoter having eight TCF/LEF binding sites derived from the SP5 promoter, is linked upstream of the firefly luciferase gene. The lentiviral constructs can also include a hygromycin resistance gene as a selectable marker. The SP5 promoter construct can be used to transduce SW480 cells, a colon cancer cell line having a mutated APC gene that generates a truncated APC protein, leading to de-regulated accumulation of β-catenin.
Cultured SW480 cells bearing a reporter construct can be distributed at approximately 10,000 cells per well into 384 well multiwell plates. Compounds from a small molecule compound library can then be added to the wells in half-log dilutions using a three micromolar top concentration. A series of control wells for each cell type receive only buffer and compound solvent. Twenty-four hours after the addition of compound, reporter activity for luciferases can be assayed, for example, by addition of the BrightGlo luminescence reagent (Promega) and the Victor3 plate reader (Perkin Elmer). Readings can be normalized to DMSO only treated cells, and normalized activities can then be used in the IC50 calculations.

SMILES | IC50 [µM]
O=C(NC1CCNCC1)c1cncc(-c2ccc3[nH]nc(-c4nc5ccncc5[nH]4)c3c2)c1 [Compound 1, 5-(3-(3H-imidazo[4,5-c]pyridin-2-yl)-1H-indazol-5-yl)-N-(piperidin-4-yl)nicotinamide] | > 10
O=C(NCC1CCCCC1)c1cncc(-c2ccc3[nH]nc(-c4nc5ccncc5[nH]4)c3c2)c1 [Compound 2, 5-(3-(3H-imidazo[4,5-c]pyridin-2-yl)-1H-indazol-5-yl)-N-(cyclohexylmethyl)nicotinamide] | > 10
O=C(NCC1CC1)c1cncc(-c2ccc3[nH]nc(-c4nc5c(-c6cccnc6)cncc5[nH]4)c3c2)c1 [Compound 3, N-(cyclopropylmethyl)-5-(3-(7-(pyridin-3-yl)-3H-imidazo[4,5-c]pyridin-2-yl)-1H-indazol-5-yl)nicotinamide] | > 10
CCC(=O)Nc1cncc(-c2ccc3[nH]nc(-c4nc5c(-c6cccnc6)cncc5[nH]4)c3c2)c1 [Compound 4, N-(5-(3-(7-(pyridin-3-yl)-3H-imidazo[4,5-c]pyridin-2-yl)-1H-indazol-5-yl)pyridin-3-yl)propionamide] | 0.029 to 0.05
CC(C)C(=O)Nc1cncc(-c2ccc3[nH]nc(-c4nc5c(-c6cccnc6)cncc5[nH]4)c3c2)c1 [Compound 11, N-(5-(3-(7-(pyridin-3-yl)-3H-imidazo[4,5-c]pyridin-2-yl)-1H-indazol-5-yl)pyridin-3-yl)isobutyramide] | 0.004
O=C(Nc1cncc(-c2ccc3[nH]nc(-c4nc5c(-c6cccnc6)cncc5[nH]4)c3c2)c1)C1CC1 [Compound 12, N-(5-(3-(7-(pyridin-3-yl)-3H-imidazo[4,5-c]pyridin-2-yl)-1H-indazol-5-yl)pyridin-3-yl)cyclopropanecarboxamide] | 0.026 to 0.035
CC(C)CC(=O)Nc1cncc(-c2ccc3[nH]nc(-c4nc5c(-c6cccnc6)cncc5[nH]4)c3c2)c1 [Compound 15, 3-methyl-N-(5-(3-(7-(pyridin-3-yl)-3H-imidazo[4,5-c]pyridin-2-yl)-1H-indazol-5-yl)pyridin-3-yl)butanamide] | 0.0056
O=C(Nc1cncc(-c2ccc3[nH]nc(-c4nc5c(-c6cccnc6)cncc5[nH]4)c3c2)c1)c1ccccc1 [Compound 16, N-(5-(3-(7-(pyridin-3-yl)-3H-imidazo[4,5-c]pyridin-2-yl)-1H-indazol-5-yl)pyridin-3-yl)benzamide] | 0.38 to 1.17
CC(C)(C)C(=O)Nc1cncc(-c2ccc3[nH]nc(-c4nc5c(-c6cccnc6)cncc5[nH]4)c3c2)c1 [Compound 17, N-(5-(3-(7-(pyridin-3-yl)-3H-imidazo[4,5-c]pyridin-2-yl)-1H-indazol-5-yl)pyridin-3-yl)pivalamide] | 0.032 to 0.05
CC(C)(C)CC(=O)Nc1cncc(-c2ccc3[nH]nc(-c4nc5c(-c6cccnc6)cncc5[nH]4)c3c2)c1 [Compound 18, 3,3-dimethyl-N-(5-(3-(7-(pyridin-3-yl)-3H-imidazo[4,5-c]pyridin-2-yl)-1H-indazol-5-yl)pyridin-3-yl)butanamide] | 0.021 to 0.039
O=C(Nc1cncc(-c2ccc3[nH]nc(-c4nc5c(-c6cccnc6)cncc5[nH]4)c3c2)c1)C1CCCCC1 [Compound 19, N-(5-(3-(7-(pyridin-3-yl)-3H-imidazo[4,5-c]pyridin-2-yl)-1H-indazol-5-yl)pyridin-3-yl)cyclohexanecarboxamide] | 0.086 to 0.206
CCCC(=O)Nc1cncc(-c2ccc3[nH]nc(-c4nc5c(-c6cccnc6)cncc5[nH]4)c3c2)c1 [Compound 20, N-(5-(3-(7-(pyridin-3-yl)-3H-imidazo[4,5-c]pyridin-2-yl)-1H-indazol-5-yl)pyridin-3-yl)butyramide] | 0.063
O=C(Nc1cncc(-c2ccc3[nH]nc(-c4nc5c(-c6cccnc6)cncc5[nH]4)c3c2)c1)C1CCC1 [Compound 21, N-(5-(3-(7-(pyridin-3-yl)-3H-imidazo[4,5-c]pyridin-2-yl)-1H-indazol-5-yl)pyridin-3-yl)cyclobutanecarboxamide] | 0.029
CCCCC(=O)Nc1cncc(-c2ccc3[nH]nc(-c4nc5c(-c6cccnc6)cncc5[nH]4)c3c2)c1 [Compound 23, N-(5-(3-(7-(pyridin-3-yl)-3H-imidazo[4,5-c]pyridin-2-yl)-1H-indazol-5-yl)pyridin-3-yl)pentanamide] | 0.034 to 0.064
